The source of these data is article doi:10.1101/2025.06.05.658145v1 (biorxiv, 2025).

Assay [1] has as its system AcTyrA1. Briefly: NADPH formation at […] nm, Michaelis-Menten fit. The class given is biochemical, Ananas comosus. The conditions noted are these: 1 mM NADP+, 50 mM HEPES pH 7.5, 50 mM KCl, 37 °C.
In assay [2] the test system is SaTyrA1. Briefly: NADPH formation at […] nm, Michaelis-Menten fit. It is filed as biochemical, Streptochaeta angustifolia. The following applies: 1 mM NADP+, 50 mM HEPES pH 7.5, 50 mM KCl, 37 °C.
Assay [3] concerns JaTyrA1. As to the kind of experiment: NADPH formation at […] nm, Michaelis-Menten fit. It is filed as biochemical, Joinvillea ascendens. The conditions noted are these: 1 mM NADP+, 50 mM HEPES pH 7.5, 50 mM KCl, 37 °C.
Assay [4] concerns JaTyrAnc. Briefly: NADPH formation at […] nm, Michaelis-Menten fit. It is filed as biochemical, Joinvillea ascendens. The following applies: 1 mM NADP+, 50 mM HEPES pH 7.5, 50 mM KCl, 37 °C.
Assay [5] has as its system SaTyrAnc. As to the kind of experiment: NADPH formation at […] nm, Michaelis-Menten fit. The class given is biochemical, Streptochaeta angustifolia. The conditions noted are these: 1 mM NADP+, 50 mM HEPES pH 7.5, 50 mM KCl, 37 °C.
The subject of assay [6] is AcTyrAnc. As to the kind of experiment: NADPH formation at […] nm, Michaelis-Menten fit. The class given is biochemical, Ananas comosus. The following applies: 1 mM NADP+, 50 mM HEPES pH 7.5, 50 mM KCl, 37 °C.
The target of assay [7] is T1, OsTyrA1 (Oryza sativa, UniProt Q5Z9H5).
T1 sequence (Q5Z9H5 46-353): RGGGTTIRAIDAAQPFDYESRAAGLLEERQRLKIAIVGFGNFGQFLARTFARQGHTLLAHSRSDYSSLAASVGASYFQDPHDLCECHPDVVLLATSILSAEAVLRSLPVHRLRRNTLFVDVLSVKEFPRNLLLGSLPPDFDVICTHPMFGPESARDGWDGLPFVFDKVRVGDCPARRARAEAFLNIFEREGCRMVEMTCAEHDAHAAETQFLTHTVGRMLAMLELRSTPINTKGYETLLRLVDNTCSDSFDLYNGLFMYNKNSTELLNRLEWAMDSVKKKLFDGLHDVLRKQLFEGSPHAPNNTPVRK
The following applies: competitive model; 500 µM arogenate, 1 mM NADP+, pH 7.5, 37 °C.

In assay [8] the target is JaTyrA1. The following applies: competitive model; 500 µM arogenate, 1 mM NADP+, pH 7.5, 37 °C.
In assay [9] the target is SaTyrAnc. The following applies: competitive model; 500 µM arogenate, 1 mM NADP+, pH 7.5, 37 °C.
Assay [10] has as its target T1, OsTyrA1. The following applies: read-out: IC50 (µM Tyr); 500 uM arogenate, 1 mM NADP+; inhibitor.
The target of assay [11] is AcTyrAnc. The conditions noted are these: competitive model; 500 µM arogenate, 1 mM NADP+, pH 7.5, 37 °C.
For assay [12], the target named is T2, ZmTyrAnc (Zea mays, UniProt C0PK73).
T2 sequence (C0PK73 50-392): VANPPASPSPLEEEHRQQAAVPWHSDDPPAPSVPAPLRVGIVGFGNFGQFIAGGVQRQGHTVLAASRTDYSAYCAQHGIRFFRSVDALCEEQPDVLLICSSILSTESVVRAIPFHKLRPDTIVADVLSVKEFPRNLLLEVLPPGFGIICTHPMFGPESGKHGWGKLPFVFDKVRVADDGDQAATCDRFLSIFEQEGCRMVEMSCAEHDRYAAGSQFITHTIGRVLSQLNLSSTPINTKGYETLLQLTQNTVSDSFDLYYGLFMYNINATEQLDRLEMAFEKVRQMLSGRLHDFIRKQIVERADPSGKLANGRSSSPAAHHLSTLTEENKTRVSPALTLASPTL
The following applies: read-out: IC50 (µM Tyr); 500 uM arogenate, 1 mM NADP+; inhibitor.

Assay [13] deals with T3, OsTyrAnc (Oryza sativa, UniProt Q5Z6Y1).
T3 sequence (Q5Z6Y1 50-342): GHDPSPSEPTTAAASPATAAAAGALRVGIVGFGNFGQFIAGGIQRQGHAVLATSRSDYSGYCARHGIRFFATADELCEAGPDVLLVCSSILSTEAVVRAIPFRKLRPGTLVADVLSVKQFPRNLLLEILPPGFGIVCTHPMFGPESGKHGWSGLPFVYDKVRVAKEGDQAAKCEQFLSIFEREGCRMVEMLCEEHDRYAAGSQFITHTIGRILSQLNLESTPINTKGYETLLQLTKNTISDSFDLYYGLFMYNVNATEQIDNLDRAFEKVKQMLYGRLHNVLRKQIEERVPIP
The following applies: read-out: IC50 (µM Tyr); 500 uM arogenate, 1 mM NADP+; inhibitor.

For assay [14], the target named is T3, OsTyrAnc. The conditions noted are these: competitive model; 500 µM arogenate, 1 mM NADP+, pH 7.5, 37 °C.
Assay [15] deals with JaTyrAnc. The following applies: competitive model; 500 µM arogenate, 1 mM NADP+, pH 7.5, 37 °C.
Assay [16] addresses T2, ZmTyrAnc. The following applies: competitive model; 500 µM arogenate, 1 mM NADP+, pH 7.5, 37 °C.
The target of assay [17] is SaTyrA1. The following applies: competitive model; 500 µM arogenate, 1 mM NADP+, pH 7.5, 37 °C.
Assay [18] concerns the target AcTyrA1. The conditions noted are these: competitive model; 500 µM arogenate, 1 mM NADP+, pH 7.5, 37 °C.

SMILES strings stand for the structures.

As for `N[C@@H](CC1(C(=O)O)C=CC(O)C=C1)C(=O)O` (stereo partly drawn) [arogenate], the Michaelis constant (Km) with AcTyrA1 [1] worked out at 750 ± 80 µM; in the assay on SaTyrA1 [2] it was 720 ± 90 µM; with JaTyrA1 [3] it was 730 ± 60 µM; in the assay on JaTyrAnc [4], 1900 ± 240 µM; in the assay with SaTyrAnc [5] it was 350 ± 20 µM; in the assay with AcTyrAnc [6] it was 1050 ± 170 µM.
For `N[C@@H](Cc1ccc(O)cc1)C(=O)O` [tyrosine], the Ki at OsTyrA1 [7] came to 21 ± 2 µM; on JaTyrA1 [8], 24 ± 4 µM; on SaTyrAnc [9] it was 35 ± 8 µM; at AcTyrAnc [11], 76 ± 30 µM; at OsTyrAnc [14], 78 ± 19 µM; on JaTyrAnc [15], 106 ± 19 µM. Moreover, the Ki on ZmTyrAnc [16] came to 352 ± 13 µM; on SaTyrA1 [17], 34 ± 23 µM; on AcTyrA1 [18] it was 12 ± 6 µM. Further, the results for the IC50 on OsTyrA1 [10], on ZmTyrAnc [12] and at OsTyrAnc [13] were 53 ± 5 µM, 850 ± 30 µM and 280 ± 70 µM, respectively.

The term Km denotes the concentration of substrate that gives half-maximal velocity. One may read the Ki as a measure of affinity in units of concentration, obtained from inhibition or displacement. In general, IC50 refers to the midpoint of a concentration-inhibition curve.
